Measurements as given in PMC3625656 (Physical biology, 2012).

Columns and labels:
squid giant axon = assay: Axonal transport of injected fluorescent bead cargo, confocal time-lapse; format: cell-based, North Atlantic Long-Finned Squid (Loligo pealleii)
[1] = target: APP-C peptide of the affinity measurement (15 aa; human or squid sequence not told); assay: pull-down

Substance: GYENPTYKFFEQMQN [hAPP-C]
- Run length (squid giant axon; calculated as v1/k1): 11.5 μm
- Detachment rate k1 (squid giant axon; from average run time, Poisson distribution, run v1 > 0.1 μm s^−1, about 40 runs): 0.0322 s⁻¹

Substance: kinesin-1 of rat brain extract (from UniProt Q2PQA9 1-963) (complex)
- Kd [1]: 4.7 nM
